Results from PMC5640712 (Frontiers in Microbiology, 2017).

Assays:
[1] = molecular target: T1, Trypsin (porcine pancreas, Sigma-Aldrich) (Sus scrofa, UniProt P00761); experiment: Trypsin inhibition (IC50 measurement); type: biochemical; conditions: at 1 h; 25°C; hydrolysis followed every 2 min for 1 h; inhibitor from 0 to 81.6 mM (so in the source); tested sample is purified Psp mixture, about 80% Psp A
T1 construct: purchased Sigma-Aldrich; host or cells: porcine pancreas
Description: Trypsin (porcine pancreas, Sigma-Aldrich) activity was measured at 25°C in a reaction mixture that contained from 0 to 81.6 mM leupeptin or pseudospumigin A and the hydrolysis was followed at every 2 min for 1 h, as described earlier (Liu et al., [2015]).

trypsin = conditions: commercial trypsin inhibitor; ref Aoyagi et al., 1969; Kurinov and Harrison, 1996; cited from earlier work
Description: Figure 6 Time dependence of trypsin inhibition efficiency (IC50) of pseudospumigin A [•, Psp A (3) + other Psp variants], nostosin A (♦, Ns A) and spumigin E (□, Sp A, from Fewer et al., [2013]). […] Time dependent inhibition is ...

T1 sequence (P00761 9-231): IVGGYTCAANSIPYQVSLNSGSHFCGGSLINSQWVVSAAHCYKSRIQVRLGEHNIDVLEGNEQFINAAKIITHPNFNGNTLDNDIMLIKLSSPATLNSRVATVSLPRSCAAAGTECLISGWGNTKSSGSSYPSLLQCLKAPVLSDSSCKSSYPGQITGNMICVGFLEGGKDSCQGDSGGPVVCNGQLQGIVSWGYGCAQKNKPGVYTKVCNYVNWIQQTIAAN

Row | Compound | IC50 [1] [µM] | time dependence of trypsin interaction (trypsin)
1 | CC[C@H](C)[C@H](NC(=O)[C@@H](CCc1ccc(O)cc1)NC(=O)[C@H](O)Cc1ccc(O)cc1)C(=O)NC(C=O)CCCNC(=N)N (some centres unmarked) [Pseudospumigin A] | 4.5 | 
2 | Ac-Leu-Leu-Argininal [leupeptin] |  | interacts with trypsin without time dependency
